# Measurements: article PMC9596378, “Discovery and molecular basis of subtype-selective cyclophilin inhibitors” (Nature Chemical Biology, 2022)
# “And” between values parts separate entries of the source, which are not always exact repeats. Identical values can stand only once. Like-named read-outs stand apart in the source and are kept apart here.
# Key:
# Experiment in all cases: Chymotrypsin coupled prolyl-isomerase assay
# [1] = biological target: T1, PPIL1 (Homo sapiens, UniProt Q9Y3C6); format: biochemical
# T1 construct: PPIL1 (UniProtKB Entry Q9Y3C6: residues 1–166); made in house; host or cells: E. coli BL21(DE3)
# T1 sequence (Q9Y3C6 1-166): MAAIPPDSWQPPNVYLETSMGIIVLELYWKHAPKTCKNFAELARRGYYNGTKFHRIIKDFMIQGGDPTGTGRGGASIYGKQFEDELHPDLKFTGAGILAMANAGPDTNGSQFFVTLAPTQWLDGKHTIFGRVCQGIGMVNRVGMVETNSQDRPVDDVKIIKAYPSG
# Protocol: Adapting a previously described protocol[51], with an Agilent Bravo Velocity 11 with a 384ST head, 90 µL assay buffer (25 mM HEPES pH 7.3, 100 mM NaCl, 0.01% Triton X-100) containing 5.28 nM cyclophilin was added into a flat, clear-bottom, black 384-well plate pre-chilled in a Corning CoolBox at 2–3 °C. Five microliters of compound pre-dissolved in 5% DMSO/assay buffer was then added to appropriate wells and incubated at 2–3 °C for 5 min. Five microliters of 0.5 mM α-chymotrypsin from bovine pancreas (Type II, lyophilized powder, Millipore-Sigma) in 20% 1 mM HCl/Assay Buffer was then added to each well and incubated at 2–3 °C for 5 min. […] Using the internal liquid handling system of the FLIPR, 1 µL 0.5 mM Suc-AAPF-AMC (Chymotrypsin Substrate II, Millipore-Sigma) dissolved in 0.55 M LiCl/2,2,2-trifluoroethanol was added to each well, which was then mixed for 5 s, followed by immediate fluorescence measurements every 1 s for 330 s using a 360–380 nm excitation LED module and a 400–460 nm emission filter. Final concentrations of the plate include 5 nM cyclophilin, 0.25% DMSO, 25 µM α-chymotrypsin, 5 µM Suc-AAPF-AMC. Raw fluorescence data was analyzed by non-linear regression analysis with Prism v.9 by fitting one-phase association curves to each well. Analyses were halted after the calculated maximum fluorescent value owing to observed fluorescent bleaching during the sustained fluorescent plateau. Rate constants calculated for each well (s^−1) were then normalized to substrate only (no prolyl-isomerase) and enzyme + substrate only controls. IC50 values were calculated as the value at which 50% inhibition was achieved on the non-linear regression fitted curve of each compound.
# [2] = biological target: Cyp40 (Homo sapiens, UniProt Q08752); details: for prolyl-isomerase activity (raw dose-response value): in s^-1
# In short: (§1)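 Chymotrypsin-coupled cis–trans isomerization of Suc-AAPF-AMC (5 µM) catalysed by 5 nM cyclophilin, run cold (2–3 °C) at pH 7.3 with 5 min compound preincubation.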
# [3] = biological target: T2, NKTR (Homo sapiens, UniProt P30414); format: biochemical; details: for prolyl-isomerase activity (raw dose-response value): NKTR
# T2 construct: NKTR (UniProtKB Entry P30414: residues 7–179); host or cells: E. coli BL21(DE3)
# T2 sequence (P30414 7-179): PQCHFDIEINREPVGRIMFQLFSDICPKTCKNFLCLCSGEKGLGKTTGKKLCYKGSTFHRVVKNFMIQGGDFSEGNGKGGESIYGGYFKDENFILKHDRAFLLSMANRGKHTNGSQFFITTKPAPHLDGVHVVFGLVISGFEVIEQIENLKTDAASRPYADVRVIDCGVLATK
# [4] = biological target: T3, CypA (Homo sapiens, UniProt P62937); format: biochemical; details: for prolyl-isomerase activity (raw dose-response value): CypA, in s^-1
# T3 construct: PPIA (UniProtKB Entry P62937: residues 1–165); made in house; host or cells: E. coli BL21(DE3)
# In short: as §1
# [5] = biological target: T4, CypC (Homo sapiens, UniProt P45877); format: biochemical; details: for prolyl-isomerase activity (raw dose-response value): CypC, in s^-1
# T4 construct: PPIC (UniProtKB Entry P45877: residues 24–212); host or cells: E. coli BL21(DE3)
# In short: as §1
# [6] = biological target: T5, CypH (Homo sapiens, UniProt O43447); format: biochemical; details: for prolyl-isomerase activity (raw dose-response value): CypH
# T5 construct: PPIH (UniProtKB Entry O43447: residues 1–177); His6 with TEV site (2BT vector leader) (N); made in house; host or cells: E. coli BL21(DE3)
# In short: as §1
# [7] = biological target: T6, CypE (Homo sapiens, UniProt Q9UNP9); format: biochemical; details: for prolyl-isomerase activity (raw dose-response value): CypE, in s^-1
# T6 construct: PPIE (UniProtKB Entry Q9UNP9: residues 131–301); host or cells: E. coli BL21(DE3)
# In short: as §1
# [8] = biological target: T7, CypG (Homo sapiens, UniProt Q13427); format: biochemical; details: for prolyl-isomerase activity (raw dose-response value): CypG, in s^-1
# T7 construct: PPIG (UniProtKB Entry Q13427: residues 1–179); His6 with thrombin site (pET28a LIC leader) (N); host or cells: E. coli BL21(DE3)
# T7 sequence (Q13427 1-179): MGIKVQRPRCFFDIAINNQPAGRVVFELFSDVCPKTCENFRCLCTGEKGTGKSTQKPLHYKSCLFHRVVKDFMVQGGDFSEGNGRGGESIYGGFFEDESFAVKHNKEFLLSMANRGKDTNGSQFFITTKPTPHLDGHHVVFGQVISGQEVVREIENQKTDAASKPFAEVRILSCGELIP
# In short: as §1
# T4 sequence (P45877 24-212): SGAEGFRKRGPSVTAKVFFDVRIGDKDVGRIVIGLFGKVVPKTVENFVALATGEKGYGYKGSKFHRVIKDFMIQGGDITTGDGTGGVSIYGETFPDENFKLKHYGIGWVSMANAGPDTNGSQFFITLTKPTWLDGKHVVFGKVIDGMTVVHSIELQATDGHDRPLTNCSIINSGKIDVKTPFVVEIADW
# T5 sequence (O43447 whole entry, the tested form may be a part): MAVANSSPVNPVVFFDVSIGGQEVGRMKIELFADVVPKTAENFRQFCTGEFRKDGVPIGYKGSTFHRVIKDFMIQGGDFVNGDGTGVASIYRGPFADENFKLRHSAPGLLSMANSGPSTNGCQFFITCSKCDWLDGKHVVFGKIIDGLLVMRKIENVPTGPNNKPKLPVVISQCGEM
# T3 sequence (P62937 whole entry, the tested form may be a part): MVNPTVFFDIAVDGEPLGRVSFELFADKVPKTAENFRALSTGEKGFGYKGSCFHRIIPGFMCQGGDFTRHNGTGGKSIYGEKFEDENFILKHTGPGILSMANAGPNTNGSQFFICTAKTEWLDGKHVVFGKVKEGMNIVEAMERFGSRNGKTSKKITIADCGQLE
# T6 sequence (Q9UNP9 131-301): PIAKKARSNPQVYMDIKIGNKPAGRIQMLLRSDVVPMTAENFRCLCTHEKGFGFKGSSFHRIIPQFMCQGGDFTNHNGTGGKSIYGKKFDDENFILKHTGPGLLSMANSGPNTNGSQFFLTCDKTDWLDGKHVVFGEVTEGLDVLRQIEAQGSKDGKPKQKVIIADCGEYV
# Chain of Cyp40 (Q08752 1-183): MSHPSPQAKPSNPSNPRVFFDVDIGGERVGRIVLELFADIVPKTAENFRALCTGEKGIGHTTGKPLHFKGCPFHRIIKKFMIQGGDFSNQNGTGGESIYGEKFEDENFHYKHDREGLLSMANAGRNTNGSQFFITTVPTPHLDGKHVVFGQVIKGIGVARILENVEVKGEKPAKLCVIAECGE
structure (smiles),measurement,setting,value
NCCOCCNC(=O)[C@@H]1CCNC(=O)/C=C/C(=O)N2CCC[C@](Cc3ccccc3)(C2)C(=O)N[C@@H](Cc2ccc(-c3ccccc3)cc2)C(=O)NCc2ccccc2CC(=O)N1 [Compound B2],prolyl-isomerase activity (raw dose-response value),"[1]; PPIL1, dose 0.0228624 µM",0.08321 and 0.1059 and 0.1063
same,prolyl-isomerase activity (raw dose-response value),"[1]; PPIL1, dose 0.0685871 µM",0.0991 and 0.07246 and 0.09332
same,prolyl-isomerase activity (raw dose-response value),"[1]; PPIL1, dose 0.205761 µM",0.0916 and 0.08667 and 0.07563
same,prolyl-isomerase activity (raw dose-response value),"[1]; PPIL1, dose 0.617284 µM",0.08092 and 0.07121 and 0.1066
same,prolyl-isomerase activity (raw dose-response value),"[1]; PPIL1, dose 1.85185 µM",0.07438 and 0.05377 and 0.06473
same,prolyl-isomerase activity (raw dose-response value),"[1]; PPIL1, dose 5.55556 µM",0.04981 and 0.03892 and 0.03912
same,prolyl-isomerase activity (raw dose-response value),"[1]; PPIL1, dose 16.6667 µM",0.02881 and 0.02468 and 0.02483
same,prolyl-isomerase activity (raw dose-response value),"[1]; PPIL1, dose 50 µM",0.01705 and 0.01748 and 0.0139
same,IC50,"[1]; wild-type PPIL1, read-out: Wild-Type Cyclophilin Prolyl Isomerase Inhibition IC50 Values, PPIL1",1900 nM
same,prolyl-isomerase activity (raw dose-response value),"[2]; Cyp40, dose 0.0228624 µM",0.06439 and 0.06966 and 0.09224
same,prolyl-isomerase activity (raw dose-response value),"[2]; Cyp40, dose 0.0685871 µM",0.06672 and 0.05591 and 0.0674
same,prolyl-isomerase activity (raw dose-response value),"[2]; Cyp40, dose 0.205761 µM",0.05415 and 0.04361 and 0.05573
same,prolyl-isomerase activity (raw dose-response value),"[2]; Cyp40, dose 0.617284 µM",0.04036 and 0.03584 and 0.03686
same,prolyl-isomerase activity (raw dose-response value),"[2]; Cyp40, dose 1.85185 µM",0.02841 and 0.02381 and 0.02316
same,prolyl-isomerase activity (raw dose-response value),"[2]; Cyp40, dose 5.55556 µM",0.01852 and 0.01638 and 0.01429
same,prolyl-isomerase activity (raw dose-response value),"[2]; Cyp40, dose 16.6667 µM",0.0159 and 0.01466 and 0.0158
same,prolyl-isomerase activity (raw dose-response value),"[2]; Cyp40, dose 50 µM",0.01447 and 0.01343 and 0.01173
same,IC50,"[2]; Wild-Type Cyclophilin Prolyl Isomerase Inhibition IC50 Values, Cyp40, wild-type Cyp40",260 nM
same,prolyl-isomerase activity (raw dose-response value),[3]; dose 0.0457247 µM,0.03158 and 0.03033 and 0.03469
same,prolyl-isomerase activity (raw dose-response value),[3]; dose 0.137174 µM,0.03164 and 0.03314 and 0.03312
same,prolyl-isomerase activity (raw dose-response value),[3]; dose 0.411523 µM,0.0325 and 0.0338 and 0.02719
same,prolyl-isomerase activity (raw dose-response value),[3]; dose 1.23457 µM,0.03372 and 0.0315 and 0.03341
same,prolyl-isomerase activity (raw dose-response value),[3]; dose 3.7037 µM,0.03071 and 0.03218 and 0.03337
same,prolyl-isomerase activity (raw dose-response value),[3]; dose 11.1111 µM,0.03272 and 0.0287 and 0.03154
same,prolyl-isomerase activity (raw dose-response value),[3]; dose 33.3333 µM,0.034 and 0.032 and 0.03
same,prolyl-isomerase activity (raw dose-response value),[3]; dose 100 µM,0.0243 and 0.0254 and 0.02366
same,IC50,"[3]; prolyl-isomerase inhibition, 5 nM cyclophilin, read-out: IC50 NKTR",~100 µM
same,IC50,"[3]; wild-type NKTR, read-out: Wild-Type Cyclophilin Prolyl Isomerase Inhibition IC50 Values, NKTR",100 µM
same,prolyl-isomerase activity (raw dose-response value),[4]; dose 0.00457247 µM,0.09251 and 0.1054 and 0.1209
same,prolyl-isomerase activity (raw dose-response value),[4]; dose 0.0137174 µM,0.07185 and 0.09383 and 0.08908
same,prolyl-isomerase activity (raw dose-response value),[4]; dose 0.0411523 µM,0.0832 and 0.08759 and 0.09561
same,prolyl-isomerase activity (raw dose-response value),[4]; dose 0.123457 µM,0.08468 and 0.0712 and 0.08817
same,prolyl-isomerase activity (raw dose-response value),[4]; dose 0.37037 µM,0.0566 and 0.04501 and 0.06387
same,prolyl-isomerase activity (raw dose-response value),[4]; dose 1.11111 µM,0.03625 and 0.03272 and 0.04381
same,prolyl-isomerase activity (raw dose-response value),[4]; dose 3.33333 µM,0.02153 and 0.02404 and 0.02804
same,prolyl-isomerase activity (raw dose-response value),[4]; dose 10 µM,0.01608 and 0.01935 and 0.02238
same,IC50,"[4]; wild-type CypA, read-out: Wild-Type Cyclophilin Prolyl Isomerase Inhibition IC50 Values, CypA",240 nM
same,prolyl-isomerase activity (raw dose-response value),[5]; dose 0.00976562 µM,0.05723 and 0.05806 and 0.05564
same,prolyl-isomerase activity (raw dose-response value),[5]; dose 0.0195312 µM,0.05812 and 0.0569 and 0.05659
same,prolyl-isomerase activity (raw dose-response value),[5]; dose 0.0390625 µM,0.05511 and 0.05318 and 0.05171
same,prolyl-isomerase activity (raw dose-response value),[5]; dose 0.078125 µM,0.04827 and 0.04606 and 0.04304
same,prolyl-isomerase activity (raw dose-response value),[5]; dose 0.15625 µM,0.04287 and 0.04429 and 0.04035
same,prolyl-isomerase activity (raw dose-response value),[5]; dose 0.3125 µM,0.03472 and 0.03475 and 0.034
same,prolyl-isomerase activity (raw dose-response value),[5]; dose 0.625 µM,0.02805 and 0.0282 and 0.0272
same,prolyl-isomerase activity (raw dose-response value),[5]; dose 1.25 µM,0.02258 and 0.02214 and 0.02094
same,prolyl-isomerase activity (raw dose-response value),[5]; dose 2.5 µM,0.01704 and 0.018 and 0.01642
same,prolyl-isomerase activity (raw dose-response value),[5]; dose 5 µM,0.01304 and 0.01485 and 0.01185
same,prolyl-isomerase activity (raw dose-response value),[5]; dose 10 µM,0.009494 and 0.009626 and 0.009002
same,IC50,"[5]; wild-type CypC, read-out: Wild-Type Cyclophilin Prolyl Isomerase Inhibition IC50 Values, CypC",380 nM
same,prolyl-isomerase activity (raw dose-response value),[6]; dose 0.0228624 µM,0.05989 and 0.06269 and 0.07687
same,prolyl-isomerase activity (raw dose-response value),[6]; dose 0.0685871 µM,0.06674 and 0.06641 and 0.06471
same,prolyl-isomerase activity (raw dose-response value),[6]; dose 0.205761 µM,0.06507 and 0.06674 and 0.06594
same,prolyl-isomerase activity (raw dose-response value),[6]; dose 0.617284 µM,0.06577 and 0.07132 and 0.06657
same,prolyl-isomerase activity (raw dose-response value),[6]; dose 1.85185 µM,0.06049 and 0.06065 and 0.0705
same,prolyl-isomerase activity (raw dose-response value),[6]; dose 5.55556 µM,0.06127 and 0.06318 and 0.06895
same,prolyl-isomerase activity (raw dose-response value),[6]; dose 16.6667 µM,0.05909 and 0.0562 and 0.05955
same,prolyl-isomerase activity (raw dose-response value),[6]; dose 50 µM,0.04477 and 0.04513 and 0.04995
same,IC50,"[6]; prolyl-isomerase inhibition, 5 nM cyclophilin, read-out: IC50 CypH",~100 µM
same,IC50,"[6]; wild-type CypH, read-out: Wild-Type Cyclophilin Prolyl Isomerase Inhibition IC50 Values, CypH",100 µM
same,prolyl-isomerase activity (raw dose-response value),[7]; dose 0.00976562 µM,0.1022 and 0.09371 and 0.09482
same,prolyl-isomerase activity (raw dose-response value),[7]; dose 0.0195312 µM,0.1041 and 0.09004 and 0.09109
same,prolyl-isomerase activity (raw dose-response value),[7]; dose 0.0390625 µM,0.08953 and 0.08464 and 0.08549
same,prolyl-isomerase activity (raw dose-response value),[7]; dose 0.078125 µM,0.08163 and 0.08105 and 0.08006
same,prolyl-isomerase activity (raw dose-response value),[7]; dose 0.15625 µM,0.07541 and 0.07108 and 0.06602
same,prolyl-isomerase activity (raw dose-response value),[7]; dose 0.3125 µM,0.0578 and 0.05386 and 0.0523
same,prolyl-isomerase activity (raw dose-response value),[7]; dose 0.625 µM,0.04345 and 0.04205 and 0.03853
same,prolyl-isomerase activity (raw dose-response value),[7]; dose 1.25 µM,0.03208 and 0.02851 and 0.02629
same,prolyl-isomerase activity (raw dose-response value),[7]; dose 2.5 µM,0.02324 and 0.0218 and 0.01925
same,prolyl-isomerase activity (raw dose-response value),[7]; dose 5 µM,0.01397 and 0.01461 and 0.01313
same,prolyl-isomerase activity (raw dose-response value),[7]; dose 10 µM,0.008566 and 0.009565 and 0.009677
same,IC50,"[7]; wild-type CypE, read-out: Wild-Type Cyclophilin Prolyl Isomerase Inhibition IC50 Values, CypE",300 nM
same,prolyl-isomerase activity (raw dose-response value),[8]; dose 6.25 µM,0.07439 and 0.0801 and 0.0712
same,prolyl-isomerase activity (raw dose-response value),[8]; dose 12.5 µM,0.06556 and 0.07016 and 0.06297
same,prolyl-isomerase activity (raw dose-response value),[8]; dose 25 µM,0.0539 and 0.06023 and 0.05271
same,prolyl-isomerase activity (raw dose-response value),[8]; dose 50 µM,0.04026 and 0.03816 and 0.04547
same,prolyl-isomerase activity (raw dose-response value),[8]; dose 100 µM,0.02765 and 0.03143
same,IC50,"[8]; wild-type CypG, read-out: Wild-Type Cyclophilin Prolyl Isomerase Inhibition IC50 Values, CypG",37 µM
